# Results from US8394825B2, “Compound” (Sterix Limited, priority 2007, dated 2013).
# System: DU145 cells
# Assay: Antiproliferative assay in DU145 cells, WST-1 cell proliferation assay, 96 hours (GI50)
# Format: cell-based
# Settings: 96 hours post-treatment, 50% growth inhibition, read-out: DU-145 GI50
# Protocol: Antiproliferative assays. DU145 cells were seeded into 96 well microtiter plates (5000 cells/well) and treated with […] of compounds or with vehicle control. At 96 hours post-treatment, live cell counts were determined by WST-1 cell proliferation assay (Roche, Penzberg, Germany), as per manufacturer's instructions. Viability results were expressed as a percentage of mean control values resulting in the calculation of the 50% growth inhibition (GI50). All experiments were performed in triplicate.
row,GI50 [µM],Structure (SMILES)
1,> 100,"COc1cc2c(cc1OS(N)(=O)=O)CCN(S(=O)(=O)c1ccccc1OC)C2=O [compound 204, 7-Methoxy-2-(2-methoxy-benzenesulfonyl)-6-O-sulfamoyl-3,4-dihydro-2H-isoquinolin-1-one]"
2,> 100,"COc1cccc(S(=O)(=O)N2CCc3cc(OS(N)(=O)=O)c(OC)cc3C2=O)c1 [compound 205, 7-Methoxy-2-(3-methoxy-benzenesulfonyl)-6-O-sulfamoyl-3,4-dihydro-2H-isoquinolin-1-one]"
3,> 100,"COc1ccc(S(=O)(=O)N2CCc3cc(OS(N)(=O)=O)c(OC)cc3C2=O)cc1 [compound 206, 7-Methoxy-2-(4-methoxy-benzenesulfonyl)-6-O-sulfamoyl-3,4-dihydro-2H-isoquinolin-1-one]"
4,> 100,"COc1cc2c(cc1OS(N)(=O)=O)CCN(S(=O)(=O)c1cccc(Cl)c1)C2=O [compound 207, 2-(3-Chloro-benzenesulfonyl)-7-methoxy-6-O-sulfamoyl-3,4-dihydro-2H-isoquinolin-1-one]"
5,< 10,"COc1cccc(CN2Cc3cc(OC)c(OS(N)(=O)=O)cc3CC2C)c1 (centres unmarked) [compound 220, 2-(3-Methoxybenzyl)-1,2,3,4-tetrahydro-7-methoxy-3-methylisoquinolin-6-O-sulfamate]"
6,< 10,"COc1cc(CN2Cc3cc(OC)c(OS(N)(=O)=O)cc3CC2C)cc(OC)c1 (centres unmarked) [compound 221, 2-(3,5-dimethoxy-benzyl)-7-methoxy-3-methyl-1,2,3,4-tetrahydro-isoquinolin-6-O-sulfamate]"
7,< 10,"COc1cc2c(cc1OS(N)(=O)=O)CC(C)N(Cc1cc(OC)c(OC)c(OC)c1)C2 (centres unmarked) [compound 222, 2-(3,4,5-Trimethoxybenzyl)-1,2,3,4-tetrahydro-7-methoxy-3-methylisoquinolin-6-O-sulfamate]"

# Same assay, conditions: 96 hours post-treatment, triplicate, read-out: DU-145 GI50
row,Structure (SMILES),GI50 [µM]
1,"COc1cc2c(cc1OS(N)(=O)=O)CCN(C(=O)c1cc(OC)c(OC)c(OC)c1)C2 [compound 127, 7-methoxy-6-O-sulfamoyl-2-(3,4,5-trimethoxybenzoyl)-1,2,3,4-tetrahydroisoquinoline]",< 10
2,"COc1ccc(C(=O)N2CCc3cc(OS(N)(=O)=O)c(OC)cc3C2=O)cc1 [compound 147, 2-(4-Methoxybenzoyl)-7-methoxy-6-O-sulfamoyl-3,4-dihydro-2H-isoquinolin-1-one]",> 100
3,"COc1cc2c(cc1OS(N)(=O)=O)CCN(C(=O)c1ccccc1OC)C2=O [compound 148, 7-Methoxy-2-(2-methoxybenzoyl)-6-O-sulfamoyl-3,4-dihydro-2H-isoquinolin-1-one]",< 10
4,"COc1cccc(C(=O)N2CCc3cc(OS(N)(=O)=O)c(OC)cc3C2=O)c1 [compound 149, 7-Methoxy-2-(3-methoxybenzoyl)-6-O-sulfamoyl-3,4-dihydro-2H-isoquinolin-1-one]",< 10
5,"COc1cc(OC)cc(C(=O)N2CCc3cc(OS(N)(=O)=O)c(OC)cc3C2=O)c1 [compound 150, 2-(3,5-Dimethoxybenzoyl)-7-methoxy-6-O-sulfamoyl-3,4-dihydro-2H-isoquinolin-1-one]",< 10
6,"COc1ccc(C(=O)N2CCc3cc(OS(N)(=O)=O)c(OC)cc3C2=O)cc1OC [compound 151, 2-(3,4-Dimethoxybenzoyl)-7-methoxy-6-O-sulfamoyl-3,4-dihydro-2H-isoquinolin-1-one]",< 10
7,"COc1cc2c(cc1OS(N)(=O)=O)CCN(C(=O)c1cc(OC)c(OC)c(OC)c1)C2=O [compound 152, 7-methoxy-6-O-sulfamoyl-2-(3,4,5-trimethoxybenzoyl)-3,4-dihydro-2H-isoquinolin-1-one]",< 10
8,"COc1cc2c(cc1OS(N)(=O)=O)CCN(C(=O)c1cccc(C#N)c1)C2=O [compound 153, 2-(3-Cyanobenzoyl)-7-methoxy-6-O-sulfamoyl-3,4-dihydro-2H-isoquinoline-1-one]",10 to 50
9,"COc1ccc(CN2CCc3cc(OS(N)(=O)=O)c(OC)cc3C2)cc1 [compound 164, 7-Methoxy-2-(4-methoxybenzyl)-6-O-sulfamoyl-3,4-dihydro-2H-isoquinoline]",> 100
10,"COc1ccccc1CN1CCc2cc(OS(N)(=O)=O)c(OC)cc2C1 [compound 165, 7-Methoxy-2-(2-methoxybenzyl)-6-O-sulfamoyl-3,4-dihydro-2H-isoquinoline]",> 100
11,"COc1cccc(CN2CCc3cc(OS(N)(=O)=O)c(OC)cc3C2)c1 [compound 166, 7-Methoxy-2-(3-methoxybenzyl)-6-O-sulfamoyl-3,4-dihydro-2H-isoquinoline]",> 100
12,"COc1cc(CN2CCc3cc(OS(N)(=O)=O)c(OC)cc3C2=O)cc(OC)c1 [compound 167, 2-(3,5-Dimethoxybenzyl)-7-methoxy-6-O-sulfamoyl-3,4-dihydro-2H-isoquinolin-1-one]",> 100

# The remaining lines, values ahead:
row,GI50 [µM],Structure (SMILES)
1,> 100,"COc1cc2c(cc1OS(N)(=O)=O)CCN(Cc1cc(OC)c(OC)c(OC)c1)C2=O [compound 168, 7-methoxy-6-O-sulfamoyl-2-(3,4,5-trimethoxybenzyl)-3,4-dihydroisoquinolin-1 (2H)-one]"
2,> 100,"COc1cc2c(cc1OS(N)(=O)=O)CCN(S(=O)(=O)c1cccc(C#N)c1)C2 [compound 187, 2-(3-Cyano-benzenesulfonyl)-7-methoxy-6-O-sulfamoyl-1,2,3,4-tetrahydroisoquinoline]"
3,50 to 100,"COc1cccc(S(=O)(=O)N2CCc3cc(OS(N)(=O)=O)c(OC)cc3C2)c1 [compound 188, 7-Methoxy-2-(3-methoxy-benzenesulfonyl)-6-O-sulfamoyl-1,2,3,4-tetrahydroisoquinoline]"
4,10 to 50,"COc1cc2c(cc1OS(N)(=O)=O)CCN(S(=O)(=O)c1cccc(C(F)(F)F)c1)C2 [compound 189, 7-Methoxy-6-O-sulfamoyl-2-(3-trifluoromethyl-benzenesulfonyl)-1,2,3,4-tetrahydroisoquinoline]"
5,10 to 50,"COc1cc2c(cc1OS(N)(=O)=O)CCN(S(=O)(=O)c1cccc(Cl)c1)C2 [compound 190, 2-(3-Chloro-benzenesulfonyl)-7-methoxy-6-O-sulfamoyl-1,2,3,4-tetrahydroisoquinoline]"
6,10 to 50,"COc1cc2c(cc1OS(N)(=O)=O)CCN(S(=O)(=O)c1cccc(C)c1)C2 [compound 191, 7-Methoxy-6-O-sulfamoyl-2-(toluene-3-sulfonyl)-1,2,3,4-tetrahydroisoquinoline]"
7,50 to 100,"COc1cc2c(cc1OS(N)(=O)=O)CCN(S(=O)(=O)c1cccc(OC(F)(F)F)c1)C2 [compound 192, 7-Methoxy-6-O-sulfamoyl-2-(3-trifluoromethoxy-benzenesulfonyl)-1,2,3,4-tetrahydroisoquinoline]"
8,< 10,"COc1cc2c(cc1OS(N)(=O)=O)CCN(S(=O)(=O)c1ccccc1C#N)C2 [compound 193, 2-(2-Cyano-benzenesulfonyl)-7-methoxy-6-O-sulfamoyl-1,2,3,4-tetrahydroisoquinoline]"
9,> 100,"COc1cc2c(cc1OS(N)(=O)=O)CCN(S(=O)(=O)c1ccccc1OC)C2 [compound 194, 7-Methoxy-2-(2-methoxy-benzenesulfonyl)-6-O-sulfamoyl-1,2,3,4-tetrahydroisoquinoline]"
10,> 100,"COc1ccc(S(=O)(=O)N2CCc3cc(OS(N)(=O)=O)c(OC)cc3C2)cc1 [compound 195, 7-Methoxy-2-(4-methoxy-benzenesulfonyl)-6-O-sulfamoyl-1,2,3,4-tetrahydroisoquinoline]"

# Same assay, conditions: Homo sapiens, DU-145, 96 hours post-treatment, 50% growth inhibition
row,GI50 [µM],Structure (SMILES)
1,> 100,"COc1cccc(CN2Cc3cc(OC)c(OS(N)(=O)=O)cc3CC2(C)C)c1 [compound 230, 2-(3-Methoxybenzyl)-1,2,3,4-tetrahydro-7-methoxy-3,3-dimethylisoquinolin-6-yl sulfamate]"
2,> 100,"COc1cc2c(cc1OS(N)(=O)=O)CC(C)(C)N(Cc1cc(OC)c(OC)c(OC)c1)C2 [compound 231, 2-(3,4,5-Trimethoxybenzyl)-1,2,3,4-tetrahydro-7-methoxy-3,3-dimethylisoquinolin-6-yl sulfamate]"

# Same assay, conditions: Homo sapiens, DU-145, 96 hours post-treatment, triplicate
row,GI50 [µM],Structure (SMILES)
1,50 to 100,"COc1cc2c(cc1OCc1ccccc1)CCN(Cc1ccccc1)C2 [compound 2, 2-Benzyl-6-benzyloxy-7-methoxy-1,2,3,4-tetrahydroisoquinoline]"
2,50 to 100,"COc1ccc(CN2CCc3cc(OCc4ccccc4)c(OC)cc3C2)cc1 [compound 3, 6-Benzyloxy-7-methoxy-2-(4-methoxybenzyl)-1,2,3,4-tetrahydroisoquinoline]"
3,50 to 100,"COc1cccc(CN2CCc3cc(OCc4ccccc4)c(OC)cc3C2)c1 [compound 4, 6-Benzyloxy-7-methoxy-2-(3-methoxybenzyl)-1,2,3,4-tetrahydroisoquinoline]"
4,> 100,"COc1cc2c(cc1OCc1ccccc1)CCN(C(=O)c1ccc(C#N)cc1)C2=O [compound 136, 6-(Benzyloxy)-2-(4-cyanobenzoyl)-7-methoxy-3,4-dihydro-2H-isoquinoline-1-one]"
5,> 100,"COc1cc2c(cc1OCc1ccccc1)CCN(S(=O)(=O)c1cccc(Cl)c1)C2 [compound 173, 6-Benzyloxy-2-(3-chloro-benzenesulfonyl)-7-methoxy-1,2,3,4-tetrahydroisoquinoline]"

row,Structure (SMILES),GI50 [µM]
1,"COc1ccc(CN2CCc3cc(O[Si](C(C)C)(C(C)C)C(C)C)c(OC)cc3C2=O)cc1 [compound 154, 7-Methoxy-2-(4-methoxybenzyl)-6-(triisopropylsilyloxy)-3,4-dihydro-2H-isoquinolin-1-one]",> 100
2,"COc1cc2c(cc1O[Si](C(C)C)(C(C)C)C(C)C)CCN(S(=O)(=O)c1cccc(C#N)c1)C2 [compound 174, 2-(3-Cyano-benzenesulfonyl)-6-triisopropylsilyloxy-7-methoxy-1,2,3,4-tetrahydroisoquinoline]",> 100

# System: not given
# Assay: not given
# Settings: not given
row,melting point [°C],Structure (SMILES)
1,97 to 98,"COc1cc2c(cc1OCc1ccccc1)CCN(Cc1ccccc1)C2 [compound 2, 2-Benzyl-6-benzyloxy-7-methoxy-1,2,3,4-tetrahydroisoquinoline]"
2,96 to 97,"COc1ccc(CN2CCc3cc(OCc4ccccc4)c(OC)cc3C2)cc1 [compound 3, 6-Benzyloxy-7-methoxy-2-(4-methoxybenzyl)-1,2,3,4-tetrahydroisoquinoline]"
3,71 to 72,"COc1cccc(CN2CCc3cc(OCc4ccccc4)c(OC)cc3C2)c1 [compound 4, 6-Benzyloxy-7-methoxy-2-(3-methoxybenzyl)-1,2,3,4-tetrahydroisoquinoline]"
